Data: the NIST ThermoML archive (doi:10.1021/je0301500)

Tests used:
[1] = 303.15 K; for surface tension liquid-gas: Ring tensiometer; for viscosity / mass density: 101.33 kPa, Liquid; for viscosity: Falling or rolling sphere viscometry; for mass density: Vibrating tube method
[2] = xn = mol fraction of the nth substance listed; conditions: 303.15 K; for surface tension liquid-gas: Ring tensiometer; for viscosity / mass density: 101.33 kPa, Liquid; for viscosity: Falling or rolling sphere viscometry; for mass density: Vibrating tube method

CCCC(=O)OCC [ethyl butanoate]
[1]
Conditions	mass density [kg/m3]	surface tension liquid-gas [mN/m]	viscosity [mPa·s]
–	868.21	23.4	0.591

CCCC(=O)OCC [ethyl butanoate] + CO
[2]
Conditions	mass density [kg/m3]	surface tension liquid-gas [mN/m]	viscosity [mPa·s]
x1 = 0.05	–	21.86	–
x1 = 0.101	–	22.03	–
x1 = 0.104	–	–	0.511
x1 = 0.15	–	22.22	–
x1 = 0.1993	820.83	–	–
x1 = 0.2	–	22.36	–
x1 = 0.2036	–	–	0.517
x1 = 0.299	–	22.65	–
x1 = 0.3	832.61	–	–
x1 = 0.3147	–	–	0.522
x1 = 0.4	841.45	22.85	–
x1 = 0.4147	–	–	0.529
x1 = 0.449	845.03	–	–
x1 = 0.474	846.71	–	–
x1 = 0.496	–	22.99	–
x1 = 0.4995	848.3	–	–
x1 = 0.5064	–	–	0.535
x1 = 0.5997	853.94	–	–
x1 = 0.605	–	23.12	–
x1 = 0.6226	–	–	0.543
x1 = 0.65	856.33	–	–
x1 = 0.6976	–	–	0.551
x1 = 0.7	–	23.18	–
x1 = 0.7495	860.43	–	–
x1 = 0.8	–	23.29	–
x1 = 0.8054	–	–	0.565
x1 = 0.883	–	23.35	–
x1 = 0.899	865.48	–	–
x1 = 0.9001	865.54	–	–
x1 = 0.9004	–	–	0.577
x1 = 0.9465	866.88	–	–

CCCC(=O)OCC [ethyl butanoate] + O
[2]
Conditions	mass density [kg/m3]	surface tension liquid-gas [mN/m]	viscosity [mPa·s]
x2 = 0.0128	–	–	0.587
x2 = 0.018	–	23.46	–
x2 = 0.019	868.19	–	–
x2 = 0.0319	–	–	0.584
x2 = 0.033	868.46	–	–
x2 = 0.039	868.71	–	0.586
x2 = 0.041	–	23.53	–
x2 = 0.0488	–	–	0.584
x2 = 0.055	–	23.6	–
x2 = 0.056	868.98	–	–
x2 = 0.0588	–	–	0.597

CO [methanol]
[1]
Conditions	mass density [kg/m3]	surface tension liquid-gas [mN/m]	viscosity [mPa·s]
–	781.91	21.68	0.504

CO [methanol] + O
[2]
Conditions	mass density [kg/m3]
x2 = 0.1031	799.74
x2 = 0.2055	818.52
x2 = 0.3014	836.97
x2 = 0.4013	857.06
x2 = 0.4994	877.48
